# Measurements as given in patent US20070275063A1, “SUSTAINED RELEASE PHARMACEUTICAL COMPOSITIONS AND METHODS OF TREATMENT USING THE SAME” (SmithKline Beecham Corporation, priority 1998, published 2007).
# What was measured:
# [1] = human, in vivo
# Experimental: Dose regimens evaluated were: 4 mg once daily and 2 mg twice daily, and 8 mg once daily and 4 mg twice daily.
# [2] = system: fasting plasma glucose (FPG) concentrations in diabetic patients; assay: PK/PD model (modified indirect response model IV) of the effect of Compound (I) on fasting plasma glucose in Type 2 diabetes patients; format: in vivo, human
# Excerpt: The method by which the Threshold Plasma Concentration, such as the SC50 concentration, for a given compound can be determined is:
# 2) the model predicted concentrations for the compound are then fed back into the model and used to determine the change in fasting plasma glucose levels after various doses;
# 3) the relationship between predicted plasma concentrations of compound and fasting plasma glucose can suitably be determined using an indirect pharmacological response model (model IV), for example that described in (Dayneka N L, Garg V and Jusko W J, Comparison of Four Basic Models of Indirect Pharmacodynamic Responses. J of Pharmacokinetics and Biopharmaceutics. Vol 21, No 4. 1993). This model yields estimates of glucose input rate (Kin) and output rate (Kout), maximal stimulation of glucose output (Smax). Hill coefficient (gamma) and the Threshold Plasma Concentration, such as the SC50 concentration (i.e the concentration associated with a half maximal response) to be determined for that compound. This method forms a further part of the present invention.
# For Compound (I), it was necessary to account for a time delay between the time of actual initiation of dosing (week 0) and the observed change in fasting plasma glucose. This delay factor was estimated through the modelling for each dose level. […] The delay factor was incorporated into the model for deriving fasting plasma glucose by assuming that the first dose of drug occurred only after the time dictated by the delay factor. It is considered that for this model a delay factor would be required for other thiazolidinedione insulin sensitisers and that this factor will be substantially similar to that found for Compound (I). Delay factors for other compounds may also be required to be determined using similar methodology to that disclosed herein.
# A modified indirect response model IV (Dayneka et al. 1993) was developed utilizing the pharmacokinetics of Compound (I) as the driving force for the change in fasting plasma glucose after various doses of Compound (I). Modeling fittings were done using ADAPT II, Release 4 (D'Argenio and Schumitzky, 1979).
# In the absence of Compound (I), plasma glucose levels are governed by formation (kin) and utilization (kout). The action of Compound (I) was described as stimulation (S(t)) of the utilization of plasma glucose (kout), described in text as FPG reduction (Eq. 1). Smax represents the maximal stimulation, SC50 is the Compound (I) concentration associated with half-maximal stimulation and γ represents a sigmoidicity parameter in the Hill type function (Eq. 2). [formula]
# The mean fasting plasma glucose profiles from 6 weeks prior to dosing (time 0) through 26 weeks of treatment for the 5 treatment groups are shown in FIG. 2. The PK/PD model accommodates the full nature of the fasting plasma glucose response over the duration of the study period as evidenced by the close agreement between observed and predicted fasting plasma glucose concentrations (FIG. 2). […] The lag-time allows the model to describe the slow onset of action of Compound (I) observed over the first 4 weeks of dosing.
smiles,measurement,setting,value
"CN(CCOc1ccc(CC2SC(=O)NC2=O)cc1)c1ccccn1 (stereo not shown) [Compound (I), 5-[4-[2-(N-methyl-N-(2-pyridyl)amino)ethoxy]benzyl]thiazolidine-2,4-dione]",mean post hoc oral clearance,[1],2.68 L/h
same,EC50,"[2]; Homo sapiens, iv, estimated pharmacodynamic parameter, not in table, read-out: SC50 (plasma concentration associated with half-maximal effect on fasting plasma glucose)",0.0514 µg/mL
same,Smax (maximal stimulation of glucose utilization),[2]; estimated pharmacodynamic parameter,0.44
same,lag-time (delay) between first dose and onset of FPG response,"[2]; mean across dose levels, estimated through the modelling",292 h
same,maximum FPG reduction suggested by Smax of the model,[2]; model-derived,160 mg/dL
same,reduction in glycaemia,"[2]; once daily dosing, study 024",clinically meaningful reductions in glycaemia are evident
same,efficacy of twice daily versus once daily dosing,"[2]; study 024, same total daily dose",twice daily dosing tended to be more efficacious than once daily
